Experimental findings from patent publication US20250049776A1, “AUTOPHAGY INDUCING COMPOUNDS AND USES THEREOF, IN PARTICULAR FOR A SYSTEMIC TREATMENT OF DISEASES AND CONDITIONS” (Samsara Therapeutics Inc., priority 2021, published 2025) are described below.

The test system of this data set is C3-PMP22 transgenic mice (B6.Cg-Tg(PMP22)C3Fbas/J). In words: Mouse model of Charcot-Marie-Tooth 1A (CMT1A). The data set is classed as in vivo. From the text:
Compound 163 was selected as an example compound of this invention to be evaluated in this model. This model (run by In vivex SAS, France) uses C3-PMP22 transgenic mice (B6·Cg-Tg(PMP22)C3Fbas/J) which express three copies of a wild-type human peripheral myelin protein 22 (PMP22) gene. These mice present an age-dependent demyelinating neuropathy characterized by predominantly distal loss of strength and sensation. C3-PMP mice show no overt clinical signs at 3 weeks and develop mild neuromuscular impairment in an age-dependent manner. They have stable, low nerve conduction velocities similar to adults with human CMT1A. Myelination is delayed in these mice, and they contain reduced numbers of myelinated fibres at 3 weeks of age.
• Animal characteristics: • Sex/Species/Strain: B6.Cg-Tg(PMP22)C3Fbas/JMale • Age: 3 weeks old • Supplier: Jackson Laboratory (USA) • Approximate weight at initiation of treatment: 19.0 g±2.5 g • Animal number: 6 mice per group • Animal identification: At the beginning of the study, animals were identified with a number on the tail. […] Clinical signs and mortality were recorded daily. Body weight was determined twice a week. • Study Outline: • Dose: 30 mg/kg • Administration: Oral gavage • Readouts: • i) Rotarod (neuromuscular performance) • ii) Sciatic nerve electrophysiology (EMG) • iii) PMP22 analysis by western blot • iv) Histology of sciatic nerve • Experimental time duration: Readouts measures at 1 and 2 months old. • Baseline rotarod and EMG readouts at 1 month old • Rotarod and EMG readouts at 2 months old • Western blot for PMP22 and histopathology of sciatic nerve at 2 months old • Vehicle used for test Compound 163: 10% DMSO/5% Cremophor R H 40 and 85% of 10% HP-β-CD in water (v/v) • Vehicle control group: vehicle only (non-treated control) • Statistics: Statistical analyses were performed using Prism software. A probability less than 5% (p<0.05) was considered as significant.
Sciatic nerve electrophysiology. Electromyography was performed on mice anesthetized with ketamine/xylazine mixture. A pair of steel needle electrodes (AD Instruments, MLA1302) were placed subcutaneously along the nerve at the sciatic notch (proximal stimulation). A second pair of electrodes were placed along the tibial nerve above the ankle (distal stimulation). Supramaximal square-wave pulses, lasting 10 ms at 1 mA were delivered using a PowerLab 26T (AD Instruments). Compound muscle action potential (CMAP) was recorded from the intrinsic foot muscles using steel electrodes. Both amplitudes and latencies of CMAP were determined. The distance between the 2 sites of stimulation was measured alongside the skin surface with fully extended legs, and nerve conduction velocities (NCVs) were calculated automatically from sciatic nerve latency measurements using Excel.
Rotarod. A rotating rod apparatus (Bioseb, France) was used to measure neuromuscular coordination and balance. Mice were first given a pretraining trial to familiarize them with the rotating rod. […] Each animal underwent 3 trials a day. For each day, values from the 3 trials were averaged for each animal, and then averaged for each group.
After electrophysiology analysis and animal sacrifice, the left sciatic nerve of all animals were sampled, solubilized in 4° C. RIPA lysis buffer completed with protease inhibitors (Fisher Scientific, France), sonicated three times during 10 s on ice (Microson ultrasonic cell disruptorXL, Microsonic) and centrifuged for 30 min at 10,000 rpm at 4° C. 50 μL of the supernatant was sampled and total protein was quantified by NanoDrop using bovine serum albumin dilutions as standard. Then, ten micrograms of protein samples were denatured using Laemmli/β-mercaptoethanol (Merck, S3401) incubation at 95° C. during 10 minutes, separated on a denaturing 10% SDS-polyacrylamide gel and transferred onto nitrocellulose membranes. Membranes were blocked for 60 min with 5 mL of Licor Blocking Buffer. […]

Where [1] appears, read: CMT1A mice at 2 months old, 30 mg/kg oral gavage twice a day during one month.
The mark [2] stands for this setting: sciatic nerve histology, CMT1A mice at 2 months old, 30 mg/kg oral gavage twice a day.

Structures can show the parent of a compound that is named as a salt.

Regarding `CC(C)N(C(=O)c1csc(-c2cnn(-c3ccccc3)c2)n1)C1CCNCC1` [Compound 163, N-isopropyl-2-(1-phenyl-1H-pyrazol-4-yl)-N-(piperidin-4-yl)thiazole-4-carboxamide hydrochloride], under setting [1], the “increase in CMAP amplitude compared to the vehicle group” value is reported as 86% and the “increase in mean rotarod latency compared to the vehicle group” value was found to be 133%. For the setting “CMT1A mice at 2 months old, 30 mg/kg oral gavage twice a day, not statistically significant”, the “increase in NCV compared to the vehicle group” value is reported as 94%. In addition, under “CMT1A mice, 30 mg/kg oral gavage twice a day”, the “differences on body weight between groups” value is on record as “No significant differences”. For the same compound, under setting [2], the “decrease in the g-ratio compared to the vehicle group” value is on record as 22% and the “increase in the number of myelinating axons compared to the vehicle group” value turned out to be 64%. Moreover, the “increase in the axonal diameter compared to the vehicle group” value (sciatic nerve histology, CMT1A mice at 2 months old, 30 mg/kg oral gavage twice a day, not statistically significant) amounted to 45%. Also, the “decrease in the level of PMP22 compared to the vehicle group” value (sciatic nerve western blot, CMT1A mice at 2 months old, 30 mg/kg oral gavage twice a day) stood at 33%.
